From article PMC2267855, “Site-directed mutagenesis of Arginine282 suggests how protons and peptides are co-transported by rabbit PepT1” (The International Journal of Biochemistry & Cell Biology, 2008)
Numbering of substitutions follows the chain as printed.

Key:
[1] = target: T1, R282E-PepT1 (Oryctolagus cuniculus, UniProt P36836, R282E); assay: Membrane potential of oocytes expressing R282E-PepT1 (single microelectrode); format: cell-based, rabbit; conditions: 10 mM, pHout 5.5, 1 min
T1 construct: expressed in transfected cells; host or cells: Xenopus laevis oocytes injected with cRNA
T1 sequence (P36836 1-707 R282E): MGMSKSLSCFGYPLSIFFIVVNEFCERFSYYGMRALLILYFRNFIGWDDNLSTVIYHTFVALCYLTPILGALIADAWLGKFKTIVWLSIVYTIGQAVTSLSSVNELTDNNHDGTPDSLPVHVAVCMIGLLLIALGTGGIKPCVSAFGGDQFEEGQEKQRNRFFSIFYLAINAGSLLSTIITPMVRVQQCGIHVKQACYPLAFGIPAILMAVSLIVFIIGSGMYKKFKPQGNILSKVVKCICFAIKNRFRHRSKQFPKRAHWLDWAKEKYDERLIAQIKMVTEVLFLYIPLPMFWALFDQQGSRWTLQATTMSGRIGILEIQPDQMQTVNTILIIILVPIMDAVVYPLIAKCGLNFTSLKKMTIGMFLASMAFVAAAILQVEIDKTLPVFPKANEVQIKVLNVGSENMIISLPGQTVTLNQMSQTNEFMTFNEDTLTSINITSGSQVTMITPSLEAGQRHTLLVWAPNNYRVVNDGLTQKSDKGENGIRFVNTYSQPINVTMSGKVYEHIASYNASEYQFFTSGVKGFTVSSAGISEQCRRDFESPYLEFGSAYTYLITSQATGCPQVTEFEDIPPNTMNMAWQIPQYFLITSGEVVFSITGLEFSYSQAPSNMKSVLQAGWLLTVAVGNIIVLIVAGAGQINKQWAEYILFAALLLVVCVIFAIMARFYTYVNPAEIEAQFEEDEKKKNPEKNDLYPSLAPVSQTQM
Protocol: (§1) Measurements of membrane potential were made by impaling oocytes with a single glass microelectrode (Intra 767 amplifier, WPI, Stevenage, Hertfordshire, UK) perfused in uptake medium (as above) with or without 0.4 μM D-Phe-L-Gln (synthesised in house), 0.6 mM Gly-L-Gln (Sigma, Poole, UK) or 10 mM 4-aminobenzoic acid (4-AMBA, Sigma). Two-electrode voltage clamp (TEVC) was performed by placing oocytes in a 0.1 ml recording chamber and perfusing with uptake solution (pH 5.5 or 7.4) at a rate of 15 ml/min. Oocytes were impaled by two agarose-cushioned microelectrodes filled with 3 M KCl (0.5–2.0 MΩ) and voltage-clamped at −60 mV using a Geneclamp 500B amplifier and PCLAMP 8.1 software (Axon Instruments, CA, USA). The holding potential was stepped from −60 mV over the range of −150 to +50 mV in 10 mV steps, each pulse lasting 100 ms, and returning to −60 mV in between test voltage pulses. Typically traces were filtered at 1 kHz during recording and digitized at 0.5–5 kHz using the DigiData 1200 interface (Axon Instruments, CA, USA). All experiments were carried out at room temperature.

[2] = target: T2, wild-type PepT1 (Oryctolagus cuniculus, UniProt P36836); assay: Membrane potential of oocytes expressing wild-type PepT1 (single microelectrode); format: cell-based, rabbit; conditions: 10 mM, pHout 5.5, 1 min
T2 construct: expressed in transfected cells; host or cells: Xenopus laevis oocytes injected with cRNA
T2 sequence (P36836 1-707): T1 sequence (P36836 1-707 R282E) with E282R
Protocol: as §1

[3] = target: T2, wild-type PepT1; assay: Diethylpyrocarbonate inhibition of PepT1-mediated dipeptide uptake and protection by substrates; format: cell-based, rabbit; conditions: for protection of PepT1 from DEPC inhibition: 5 mM present during 1 mM DEPC incubation (15 min), uptake measured over 1 h
Protocol: (§2) Zero-trans uptake of [^3H]-D-Phe-L-Gln (17.4 Ci/mmole, custom synthesised, Cambridge Research Biochemicals, Stockton-on-Tees, UK) was performed as previously described ([Meredith, 2004]). Briefly, 5 oocytes were incubated in 100 μl of uptake medium (95 mM NaCl, 2 mM KCl, 1 mM CaCl2, 0.42 mM MgCl2, 10 mM Tris/Hepes pH 7.4 or Tris/Mes pH 5.5) with tracer (0.4 μM) [^3H]-D-Phe-L-Gln. After incubation, the oocytes were washed sequentially five times in 1 ml of ice-cold 120 mM NaCl solution, lysed individually with 100 μl 2% (w/v) SDS and liquid scintillation counted. As a control non-injected oocytes were also incubated in uptake medium with [^3H]-D-Phe-L-Gln as above.
Diethylpyrocarbonate (DEPC) inhibition of PepT1 was performed using a similar protocol to that of [Terada, Saito, and Inui (1998)]. Briefly, PepT1 oocytes were preincubated with 1 mM DEPC for 15 min at pHout 5.5 in the absence or presence of the PepT1 substrates Gly-L-Gln, N-Acetyl-Phe ([Meredith et al., 2000]), and L-Ala-Tyramine (custom synthesised) and the non-substrate Tyr (all 5 mM). The oocytes were then washed in uptake medium before uptake assays were performed as detailed above.

[4] = target: T3, wild-type rabbit PepT1 (Oryctolagus cuniculus, UniProt P36836); assay: Inhibition of [3H]-D-Phe-L-Gln uptake into Xenopus oocytes expressing wild-type PepT1 (competition, Ki); format: cell-based; conditions: PepT1, data not shown; read-out: Ki (PepT1 substrate)
T3 construct: expressed in transfected cells; host or cells: Xenopus laevis oocytes injected with cRNA
T3 sequence (P36836 1-707): T1 sequence (P36836 1-707 R282E) with E282R
Protocol: as §2
The affinity of wild-type and mutant PepT1 were assessed by competition studies with 0.4 μM [^3H]-D-Phe-L-Gln and Gly-L-Gln present in the uptake medium in concentrations from 0 to 2 mM using the protocol above, and the Ki calculated using the method of [Deves and Boyd (1989)].

Structure (SMILES): Nc1ccc(C(=O)O)cc1 [4-AMBA, 4-aminobenzoic acid]
- membrane potential depolarisation [1]: failed to induce a depolarisation
- membrane potential depolarisation [2]: failed to induce a depolarisation

Structure (SMILES): CC(=O)NC(Cc1ccccc1)C(=O)O (stereo not shown) [N-Acetyl-Phe]
- protection of PepT1 from DEPC inhibition [3]: largely prevented

Structure (SMILES): CCOC(=O)OC(=O)OCC [DEPC, Diethylpyrocarbonate]
- inhibition of PepT1 mediated dipeptide uptake ([3]; 1 mM, 15 min preincubation, pHout 5.5, uptake measured over 1 h): completely inhibited

Structure (SMILES): N[C@@H](Cc1ccc(O)cc1)C(=O)O [Tyr]
- protection of PepT1 from DEPC inhibition [3]: not

Structure (SMILES): C[C@H](N)C(=O)NCCc1ccc(O)cc1 [L-Ala-Tyramine]
- Ki [4]: ~100 µM
- protection of PepT1 from DEPC inhibition [3]: only partially prevented
